Consider 12 compounds from ChEMBL document CHEMBL1201862, “PubChem BioAssay data set” (2004).

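Grown in 96-well plates, cells were treated for 48 hours with each compound at five concentrations. Insufficient inhibition: endpoint recorded as highest concentration tested. GI50 marks 50% less growth.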 The source made the active and inactive calls. No stated cut-off is given here; in the data, active = GI50 up to about 1.1 µM and inactive = higher.

Among the test systems are A498; T47D; SN12C; OVCAR-8; U-251; MOLT-4; MDA-MB-435; HCT-116; NCI-H460; OVCAR-5; SK-MEL-2; HOP-62; OVCAR-4; DMS-273; EKVX; SNB-75; IGROV-1; MDA-MB-231; HCT-15; KM12.
What all share (test): inhibition of tumour cell growth, NCI panel, 48 h

Turning to `CCCN(CCCCC(NC(C)=O)C(=O)NCc1ccccc1)C(=O)N(CCCl)N=O` (stereo unspecified), the GI50 was > 86.9 µM (inactive) with A498; 78.9 µM (inactive) in the assay on T47D; 58.3 µM (inactive) in the assay on SN12C; > 89.7 µM (inactive) with OVCAR-8; 15.8 µM (inactive) in the assay with U-251; 36.3 µM (inactive) in the assay with MOLT-4. Moreover, the GI50 is > 100 µM (inactive) in the assay with MDA-MB-435; 60.3 µM (inactive) in the assay on HCT-116; 10.1 µM (inactive) in the assay on NCI-H460; > 100 µM (inactive) with OVCAR-5; > 100 µM (inactive) with SK-MEL-2; 25.5 µM (inactive) in the assay on HOP-62. The GI50 in the assay on OVCAR-4 is > 100 µM (inactive); with DMS-273 it was 72.6 µM (inactive); in the assay on EKVX, > 100 µM (inactive); in the assay on SNB-75, 27.1 µM (inactive); in the assay with IGROV-1, > 92.3 µM (inactive); in the assay with MDA-MB-231 it was > 100 µM (inactive). In addition, the results for the GI50 in the assay with HCT-15 and with KM12 were over 100 µM and > 100 µM (inactive), respectively.
Take `O=[N+]([O-])C(/C=N/Nc1ccccc1)/C=N/Nc1ccccc1`: the GI50 with A498, in the assay on SN12C, in the assay on OVCAR-8, with U-251, in the assay with MOLT-4 and in the assay with HCT-116 was > 100 µM (inactive) throughout. Besides, the GI50 in the assay with NCI-H460, in the assay on OVCAR-5, with SK-MEL-2, in the assay on HOP-62, in the assay with OVCAR-4 and in the assay on DMS-273 was > 100 µM (inactive) each time. In addition, the GI50 is > 100 µM (inactive) with EKVX; > 100 µM (inactive) with SNB-75; > 100 µM (inactive) in the assay with IGROV-1; over 100 µM with HCT-15; > 100 µM (inactive) in the assay with KM12.
On to `COC(=O)C(/C(=N\O)C(=O)Nc1ccc(Br)cc1)c1nc2ccccc2nc1O` (stereo unspecified), for which the GI50 in the assay on A498 was 61 µM (inactive); in the assay on SN12C, 35.8 µM (inactive); with OVCAR-8 it was > 100 µM (inactive); in the assay on U-251, 34 µM (inactive); in the assay on MOLT-4, 26.1 µM (inactive); in the assay with HCT-116, 55.8 µM (inactive). In addition, the GI50 was 89.9 µM (inactive) in the assay on NCI-H460; > 100 µM (inactive) with OVCAR-5; 23 µM (inactive) in the assay on SK-MEL-2; 28.4 µM (inactive) in the assay on HOP-62; 64.7 µM (inactive) in the assay with OVCAR-4; 31.1 µM (inactive) in the assay on DMS-273. For the same compound, the GI50 is 67.3 µM (inactive) with EKVX; 23.6 µM (inactive) in the assay on SNB-75; 19 µM (inactive) in the assay on IGROV-1; 64.7 µM in the assay on HCT-15; > 100 µM (inactive) in the assay with KM12.
Take `COc1ccc(/C=C2\CCC(C)(CN(C)C)C2=O)cc1OC` (stereo unspecified): the GI50 in the assay on A498, in the assay on SN12C, in the assay with OVCAR-8, in the assay with U-251, in the assay on MOLT-4 and in the assay with HCT-116 was > 100 µM (inactive) in each case. The GI50 with NCI-H460, with OVCAR-5, in the assay on SK-MEL-2, in the assay with HOP-62, in the assay with OVCAR-4 and in the assay on DMS-273 was > 100 µM (inactive) throughout. Further, the GI50 is 32.8 µM (inactive) in the assay with EKVX; > 100 µM (inactive) in the assay with SNB-75; > 100 µM (inactive) in the assay on IGROV-1; over 100 µM with HCT-15; > 100 µM (inactive) in the assay with KM12.
With `COc1cc2c(cc1OC)c1c(OC)c(OC)cc3c1c1c2sc(=S)n1CC3`, the GI50 in the assay with A498 is > 100 µM (inactive); in the assay with SN12C it was 64.6 µM (inactive); with OVCAR-8 it was 41.8 µM (inactive); with U-251 it was 66.5 µM (inactive); with MOLT-4 it was 30.7 µM (inactive); in the assay with HCT-116 it was 97.9 µM (inactive). Besides, the GI50 in the assay with NCI-H460 was 42.7 µM (inactive); with OVCAR-5, > 100 µM (inactive); in the assay with SK-MEL-2, > 100 µM (inactive); with OVCAR-4, 55 µM (inactive); in the assay with DMS-273, 53.1 µM (inactive); in the assay with EKVX it was > 100 µM (inactive). The GI50 in the assay with SNB-75 is 74.6 µM (inactive); in the assay on IGROV-1 it was > 100 µM (inactive); in the assay on HCT-15, 42.3 µM; in the assay with KM12, 55.8 µM (inactive).
With `C#CC1/C(=C\C(=O)OC)CCCC1O` (stereo unspecified), the GI50 with A498, in the assay with SN12C, in the assay with OVCAR-8, in the assay with U-251, with MOLT-4 and in the assay with HCT-116 was > 100 µM (inactive) in each case. Also, the GI50 with NCI-H460, with OVCAR-5, in the assay on SK-MEL-2, in the assay with HOP-62, in the assay with OVCAR-4 and in the assay with DMS-273 was > 100 µM (inactive) in each case. In addition, the GI50 in the assay on EKVX is > 100 µM (inactive); in the assay on SNB-75 it was > 100 µM (inactive); in the assay on IGROV-1 it was > 100 µM (inactive); in the assay on HCT-15, over 100 µM; with KM12 it was > 100 µM (inactive).
Take `C=C(C)C(=O)OC1CC2=CC(CC3(C)OC3C3OC(=O)C(=C)C13)OC2=O` (stereo unspecified): the GI50 in the assay with A498 is 16.6 µM (inactive); in the assay with T47D, 4.67 µM (inactive); in the assay with SN12C, 13.7 µM (inactive); in the assay on OVCAR-8 it was 9.66 µM (inactive); in the assay on U-251, 17.4 µM (inactive); in the assay on MOLT-4, 1.84 µM (inactive). The GI50 in the assay on MDA-MB-435 is 15.2 µM (inactive); in the assay on HCT-116 it was 5.01 µM (inactive); with NCI-H460, 17.9 µM (inactive); in the assay on OVCAR-5, 20 µM (inactive); with SK-MEL-2, 12.9 µM (inactive); with HOP-62 it was 22.4 µM (inactive). The GI50 in the assay with OVCAR-4 is 12.6 µM (inactive); in the assay with DMS-273 it was 12.9 µM (inactive); in the assay on EKVX, 15 µM (inactive); in the assay with SNB-75 it was 14.7 µM (inactive); in the assay with IGROV-1, 19.3 µM (inactive); in the assay with MDA-MB-231 it was 18.1 µM (inactive). Further, the results for the GI50 in the assay with HCT-15 and in the assay with KM12 were 8.07 µM and 15.6 µM (inactive), respectively.
With `CC(C)N1CN(C(C(=O)N[C@@H]2C(=O)N3C2SC(C)(C)C3C(=O)O)c2ccccc2)CSC1=S` (stereo partly specified), the GI50 in the assay with A498, in the assay with SN12C, in the assay on OVCAR-8, in the assay on U-251, in the assay with MOLT-4 and in the assay with HCT-116 was > 100 µM (inactive) throughout. Further, the GI50 in the assay with NCI-H460 is 43.7 µM (inactive); with OVCAR-5, > 100 µM (inactive); with SK-MEL-2, > 100 µM (inactive); in the assay on HOP-62 it was > 100 µM (inactive); with OVCAR-4, > 100 µM (inactive); in the assay with DMS-273, > 100 µM (inactive). The GI50 is > 100 µM (inactive) in the assay with EKVX; > 100 µM (inactive) with SNB-75; > 100 µM (inactive) in the assay with IGROV-1; 22.1 µM with HCT-15; > 100 µM (inactive) with KM12.
With `CN(N=O)C(=O)N(N)CCCCC(NC(=O)OCc1ccccc1)C(=O)OCc1ccccc1` (stereo unspecified), the GI50 in the assay on A498 was 69.7 µM (inactive); with SN12C, 18.6 µM (inactive); with OVCAR-8 it was 33.7 µM (inactive); in the assay with U-251 it was 38.9 µM (inactive); with MOLT-4 it was 18.9 µM (inactive); in the assay on HCT-116, 29.8 µM (inactive). Besides, the GI50 with NCI-H460 is 32.5 µM (inactive); with OVCAR-5 it was > 100 µM (inactive); in the assay on SK-MEL-2 it was 91.6 µM (inactive); with HOP-62, 9.75 µM (inactive); in the assay on OVCAR-4, 33.7 µM (inactive); with DMS-273 it was 32.2 µM (inactive). Also, the GI50 in the assay on EKVX was > 100 µM (inactive); with SNB-75, 20.6 µM (inactive); with IGROV-1, 49.2 µM (inactive); in the assay with HCT-15, 90.4 µM; with KM12, 38.8 µM (inactive).
For the compound `CCC(=O)C12OC3OC(C)(C)OC3C1OC(C)(C)O2` (stereo unspecified), the GI50 in the assay on A498, in the assay on SN12C, in the assay on OVCAR-8, with U-251, with MOLT-4 and in the assay with HCT-116 was > 100 µM (inactive) throughout. In addition, the GI50 with NCI-H460, in the assay on OVCAR-5, with SK-MEL-2, in the assay on HOP-62, in the assay with OVCAR-4 and with DMS-273 was > 100 µM (inactive) each time. The GI50 with EKVX, in the assay with SNB-75, with IGROV-1 and with KM12 was > 100 µM (inactive) in each case.
Turning to `O=C1CCCC1NC(=O)C(F)(F)F` (stereo unspecified), the GI50 in the assay on A498, in the assay on SN12C, with OVCAR-8, in the assay with U-251, with MOLT-4 and in the assay with HCT-116 was > 100 µM (inactive) each time. Moreover, the GI50 in the assay with NCI-H460, in the assay with OVCAR-5, with SK-MEL-2, in the assay on HOP-62, in the assay on OVCAR-4 and in the assay with DMS-273 was > 100 µM (inactive) in each case. The GI50 with EKVX, in the assay with SNB-75, in the assay on IGROV-1 and in the assay with KM12 was > 100 µM (inactive) each time.
Regarding `COc1cccc(/C=C2\CCC(CCN(C)C)(C3=CCCC3)C2=O)c1` (stereo unspecified), the GI50 in the assay with A498 was 15.7 µM (inactive); in the assay with SN12C, 14.9 µM (inactive); in the assay with OVCAR-8, 17.3 µM (inactive); in the assay on U-251, 16.6 µM (inactive); in the assay on MOLT-4, 13.9 µM (inactive); in the assay on HCT-116 it was 13.8 µM (inactive). In addition, the GI50 in the assay with NCI-H460 is 15.8 µM (inactive); with OVCAR-5 it was 14.6 µM (inactive); in the assay with SK-MEL-2 it was 15.9 µM (inactive); with HOP-62 it was 17.2 µM (inactive); in the assay on OVCAR-4 it was 16.4 µM (inactive); in the assay with DMS-273 it was 14.4 µM (inactive). Also, the GI50 in the assay on SNB-75 is 15.9 µM (inactive); with IGROV-1, 15.8 µM (inactive); in the assay with HCT-15 it was 16.2 µM; with KM12, 17.2 µM (inactive).
